Reference: the supplement of paper PMC10307832

How the values were obtained:
Assay in all cases: relative viability (nuclei count vs DMSO), 5 days (fraction); higher = more cells survive
[1] = compound: C1CCC(CC1)N(CCNCCC2=C3C(=C(C=C2)O)NC(=O)CO3)C(=O)CCNCCC4=CC(=C(C=C4)Cl)Cl [AZ505] + C[C@@H](Oc1cc(-c2cnn(C3CCNCC3)c2)cnc1N)c1c(Cl)ccc(F)c1Cl [Crizotinib] (partner 1 µM)
In short: (§1)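 Relative viability equals treated-well nuclei counts divided by vehicle-well nuclei counts. Counts came from 4× images of lung cancer cell lines grown in 1536-well plates for 5 days after pin-tool dosing on the day after seeding. Dosing used one drug alone or a fixed anchor-drug dose plus five library-drug doses (not always all listed) in √10 steps, and values are medians of duplicate plates.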

[2] = compound: C1CCC(CC1)N(CCNCCC2=C3C(=C(C=C2)O)NC(=O)CO3)C(=O)CCNCCC4=CC(=C(C=C4)Cl)Cl [AZ505] + Nc1ncn([C@H]2C[C@H](O)[C@@H](CO)O2)c(=O)n1 [Decitabine] (partner 2 µM)
In short: as §1

[3] = compound: Cn1c(=O)n(-c2ccc(C(C)(C)C#N)cc2)c2c3cc(-c4cnc5ccccc5c4)ccc3ncc21 [Dactolisib] + Cc1cc(Nc2cc(N3CCN(C)CC3)nc(Sc3ccc(NC(=O)C4CC4)cc3)n2)n[nH]1 [Tozasertib] (partner 0.1 µM)
In short: as §1

[4] = compound: Cn1c(=O)n(-c2ccc(C(C)(C)C#N)cc2)c2c3cc(-c4cnc5ccccc5c4)ccc3ncc21 [Dactolisib] + O=C(CCCCCCC(=O)Nc1ccccc1)NO [Vorinostat] (partner 1 µM)
In short: as §1

Cell Line | relative viability ([1]; first compound 0.08 µM) | relative viability ([1]; first compound 0.253 µM) | relative viability ([1]; first compound 0.8 µM) | relative viability ([1]; first compound 2.53 µM) | relative viability ([1]; first compound 8 µM) | relative viability ([2]; first compound 0.08 µM) | relative viability ([2]; first compound 0.253 µM) | relative viability ([2]; first compound 0.8 µM) | relative viability ([2]; first compound 2.53 µM) | relative viability ([2]; first compound 8 µM) | relative viability ([3]; first compound 0.002 µM) | relative viability ([3]; first compound 0.006325 µM) | relative viability ([3]; first compound 0.02 µM) | relative viability ([3]; first compound 0.06325 µM) | relative viability ([3]; first compound 0.2 µM) | relative viability ([4]; first compound 0.002 µM) | relative viability ([4]; first compound 0.006325 µM) | relative viability ([4]; first compound 0.02 µM) | relative viability ([4]; first compound 0.06325 µM) | relative viability ([4]; first compound 0.2 µM)
HCC-44 | 0.748 | 0.772 | 0.804 | 0.773 | 0.791 | 0.902 | 1.03 | 0.869 | 1.01 | 0.945 | 0.826 | 0.899 | 0.855 | 0.341 | 0.297 | 1.12 | 1.14 | 1.21 | 1.14 | 0.885
HCC-827 | 0.865 | 0.854 | 0.913 | 0.918 | 0.948 | 0.325 | 0.313 | 0.324 | 0.37 | 0.351 | 0.419 | 0.452 | 0.401 | 0.416 | 0.329 | 0.966 | 0.934 | 0.785 | 0.498 | 0.82
NCI-H1623 |  |  |  |  |  |  |  |  |  |  | 0.396 | 0.414 | 0.428 | 0.37 | 0.298 |  |  |  |  | 
NCI-H2347 | 0.518 | 0.55 | 0.433 | 0.443 | 0.559 | 0.545 | 0.572 | 0.511 | 0.461 | 0.505 | 0.676 | 0.527 | 0.535 | 0.394 | 0.264 | 0.557 | 0.55 | 0.585 | 0.364 | 0.378
PC-14 | 0.787 | 0.805 | 0.934 | 0.846 | 0.95 | 0.2 | 0.261 | 0.272 | 0.192 | 0.258 | 0.576 | 0.679 | 0.629 | 0.215 | 0.125 | 0.767 | 0.681 | 0.417 | 0.155 | 0.163
NCI-H1651 | 0.804 | 0.82 | 0.874 | 0.823 | 0.885 | 0.55 | 0.576 | 0.672 | 0.727 | 0.598 | 0.693 | 0.677 | 0.564 | 0.475 | 0.286 | 0.579 | 0.645 | 0.547 | 0.391 | 0.377
HARA | 0.954 | 0.89 | 0.896 | 0.909 | 0.948 | 0.302 |  | 0.41 | 0.482 | 0.408 | 0.103 | 0.116 | 0.103 | 0.112 | 0.0818 | 0.578 | 0.461 | 0.523 | 0.41 | 0.11
NCI-H1650 | 0.985 | 1.12 | 0.991 | 0.963 | 0.915 | 0.367 | 0.405 | 0.502 | 0.368 | 0.427 | 0.397 | 0.476 | 0.425 | 0.367 | 0.302 | 0.47 | 0.508 | 0.504 | 0.32 | 0.264
NCI-H1395 |  |  |  |  |  | 0.745 |  | 0.664 | 0.699 | 0.767 | 0.657 | 0.709 | 0.676 | 0.593 | 0.53 | 0.423 | 0.622 | 0.554 | 0.496 | 0.467
SK-LU-1 | 0.608 | 0.731 | 0.649 | 0.664 | 0.714 | 0.518 | 0.568 | 0.565 | 0.406 | 0.604 | 0.324 | 0.307 | 0.302 | 0.245 | 0.176 | 0.766 | 0.697 | 0.671 | 0.448 | 0.321
LU99A | 0.474 | 0.592 | 0.594 | 0.638 | 0.575 | 0.841 | 0.921 | 0.802 |  | 0.87 | 0.265 | 0.257 | 0.283 | 0.224 | 0.185 | 0.417 | 0.368 | 0.407 | 0.246 | 0.162
NCI-H1355 | 1.06 | 1.04 | 1.12 | 1.02 | 1.05 | 0.345 | 0.366 | 0.37 | 0.379 | 0.351 | 0.625 | 0.537 | 0.447 | 0.456 | 0.177 | 0.693 | 0.608 | 0.558 | 0.408 | 0.295
HCC-78 |  | 0.397 | 0.373 | 0.341 | 0.389 |  |  | 0.738 | 0.705 | 0.801 | 0.457 | 0.418 | 0.414 | 0.361 | 0.284 | 0.33 | 0.431 | 0.415 | 0.367 | 0.303
NCI-H1563 | 0.831 | 0.807 | 0.805 | 0.848 | 0.809 |  |  |  |  |  |  |  |  |  |  |  |  |  |  | 
HCC-15 | 0.791 | 0.908 | 0.772 | 0.844 | 0.823 | 0.566 | 0.627 | 0.587 | 0.705 | 0.678 | 0.388 | 0.386 | 0.449 | 0.326 | 0.215 | 0.961 | 0.786 | 0.85 | 0.498 | 0.373
EKVX | 0.777 | 1.05 | 0.926 | 0.798 | 1.02 |  | 0.35 | 0.318 | 0.349 | 0.349 | 0.426 | 0.366 | 0.423 | 0.242 | 0.179 | 0.794 | 0.72 | 0.657 | 0.359 | 0.273
NCI-H2087 | 0.683 | 0.743 | 0.998 | 0.752 | 0.838 | 0.224 | 0.254 | 0.275 | 0.289 | 0.277 | 0.328 | 0.248 | 0.243 | 0.176 | 0.192 | 0.731 | 0.458 | 0.501 | 0.176 | 0.339
LK-2 | 0.234 | 0.237 | 0.211 | 0.21 | 0.215 | 0.22 | 0.32 | 0.331 | 0.33 | 0.329 | 0.209 | 0.197 | 0.181 | 0.153 | 0.171 | 0.317 | 0.247 | 0.294 | 0.239 | 0.213
